Laboratory results from PubChem BioAssay AID248 (DTP/NCI, 2004).
Several values for one entry are separate records, joined by “and”; a condition that tells them apart may be missing. Equal entries are not always repeated. Toxic doses and inconclusive results are not listed.

System: L1210 leukemia ip in BDF1 mice, survival T/C
Assay: NCI In Vivo Anticancer Drug Screen. Data for tumor model L1210 Leukemia (intraperitoneal) in B6D2F1 (BDF1) mice
Details: endpoint: mean survival time, higher = longer survival
How it was run: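 Tumor cells were implanted, animals were treated, and survival was followed. The result divides the treated measurement by the vehicle-control measurement.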

[1] = dose: 100.0 mg/kg/injection, schedule: Q01DX001 (ip), vehicle: saline
[2] = dose: 100.0 mg/kg/injection, schedule: Q01DX009 (ip), vehicle: Klucel (hydroxypropylcellulose) (HPC)
[3] = dose: 200.0 mg/kg/injection, schedule: Q01DX001 (ip), vehicle: saline
[4] = dose: 400.0 mg/kg/injection, schedule: Q01DX001 (ip), vehicle: saline
[5] = dose: 75.0 mg/kg/injection, schedule: Q04DX003 (ip), vehicle: Klucel (hydroxypropylcellulose) (HPC)
[6] = dose: 150.0 mg/kg/injection, schedule: Q04DX003 (ip), vehicle: Klucel (hydroxypropylcellulose) (HPC)
[7] = dose: 300.0 mg/kg/injection, schedule: Q04DX003 (ip), vehicle: Klucel (hydroxypropylcellulose) (HPC)

With `Cc1c(O)ccc(=O)n1O` the T/C (dose: 10.4 mg/kg/injection, schedule: Q03HX024 (ip), vehicle: Klucel (hydroxypropylcellulose) (HPC)) was 97 % of control, the T/C (dose: 12.0 mg/kg/injection, schedule: Q01DX009 (ip), vehicle: Klucel (hydroxypropylcellulose) (HPC)) was 107 % of control and the T/C (dose: 15.6 mg/kg/injection, schedule: Q03HX024 (ip), vehicle: Klucel (hydroxypropylcellulose) (HPC)) was 96 % of control. The T/C (dose: 22.8 mg/kg/injection, schedule: Q03HX024 (ip), vehicle: Klucel (hydroxypropylcellulose) (HPC)) was 93 % of control, the T/C (dose: 24.0 mg/kg/injection, schedule: Q01DX009 (ip), vehicle: Klucel (hydroxypropylcellulose) (HPC)) was 102 % of control and the T/C (dose: 34.8 mg/kg/injection, schedule: Q03HX024 (ip), vehicle: Klucel (hydroxypropylcellulose) (HPC)) was 98 % of control. The T/C (dose: 48.0 mg/kg/injection, schedule: Q01DX009 (ip), vehicle: Klucel (hydroxypropylcellulose) (HPC)) was 107 % of control, the T/C (dose: 49.0 mg/kg/injection, schedule: Q01DX Z (ip), vehicle: carboxymethylcellulose (CMC)) was 109 % of control and the T/C (dose: 49.0 mg/kg/injection, schedule: Q01DX Z (ip), vehicle: methylcellulose (MC)) was 100 % of control and 110 % of control. The T/C (dose: 52.0 mg/kg/injection, schedule: Q01DX009 (ip), vehicle: Klucel (hydroxypropylcellulose) (HPC)) was 103 % of control, the T/C (dose: 52.0 mg/kg/injection, schedule: Q03HX024 (ip), vehicle: Klucel (hydroxypropylcellulose) (HPC)) was 100 % of control and 105 % of control and the T/C (dose: 62.0 mg/kg/injection, schedule: Q03HX024 (ip), vehicle: saline with Tween-80) was 92 % of control. For the same compound, the T/C (dose: 73.0 mg/kg/injection, schedule: Q01DX Z (ip), vehicle: carboxymethylcellulose (CMC)) was 111 % of control, the T/C (dose: 73.0 mg/kg/injection, schedule: Q01DX Z (ip), vehicle: methylcellulose (MC)) was 93 % of control and the T/C (dose: 89.0 mg/kg/injection, schedule: Q01DX001 (ip), vehicle: carboxymethylcellulose (CMC)) was 106 % of control. For the same compound, the T/C (dose: 96.0 mg/kg/injection, schedule: Q03HX024 (ip), vehicle: Klucel (hydroxypropylcellulose) (HPC)) was 100 % of control, the T/C (dose: 100.0 mg/kg/injection, schedule: Q01DX001 (ip), vehicle: carboxymethylcellulose (CMC)) was 113 % of control and the T/C [1] was 112 % of control. The T/C [2] was 115 % of control, the T/C (dose: 100.0 mg/kg/injection, schedule: Q04DX003 (ip), vehicle: acetone) was 108 % of control and the T/C (dose: 104.0 mg/kg/injection, schedule: Q01DX001 (ip), vehicle: Klucel (hydroxypropylcellulose) (HPC)) was 103 % of control. For the same compound, the T/C (dose: 104.0 mg/kg/injection, schedule: Q04DX003 (ip), vehicle: Klucel (hydroxypropylcellulose) (HPC)) was 95 % of control, the T/C (dose: 110.0 mg/kg/injection, schedule: Q01DX Z (ip), vehicle: carboxymethylcellulose (CMC)) was 151 % of control and the T/C (dose: 110.0 mg/kg/injection, schedule: Q01DX Z (ip), vehicle: methylcellulose (MC)) was 94 % of control. For the same compound, the T/C (dose: 110.0 mg/kg/injection, schedule: Q01DX Z (ip), vehicle: saline) was 102 % of control, the T/C (dose: 125.0 mg/kg/injection, schedule: Q03HX024 (ip), vehicle: saline with Tween-80) was 102 % of control and the T/C (dose: 156.0 mg/kg/injection, schedule: Q01DX001 (ip), vehicle: Klucel (hydroxypropylcellulose) (HPC)) was 97 % of control. The T/C (dose: 156.0 mg/kg/injection, schedule: Q04DX003 (ip), vehicle: Klucel (hydroxypropylcellulose) (HPC)) was 103 % of control, the T/C (dose: 165.0 mg/kg/injection, schedule: Q01DX Z (ip), vehicle: carboxymethylcellulose (CMC)) was 152 % of control and the T/C (dose: 165.0 mg/kg/injection, schedule: Q01DX Z (ip), vehicle: methylcellulose (MC)) was 122 % of control. The T/C (dose: 165.0 mg/kg/injection, schedule: Q01DX Z (ip), vehicle: saline) was 104 % of control, the T/C (dose: 200.0 mg/kg/injection, schedule: Q01DX001 (ip), vehicle: carboxymethylcellulose (CMC)) was 112 % of control and the T/C [3] was 107 % of control. For the same compound, the T/C (dose: 200.0 mg/kg/injection, schedule: Q01DX009 (ip), vehicle: Klucel (hydroxypropylcellulose) (HPC)) was 108 % of control, the T/C (dose: 200.0 mg/kg/injection, schedule: Q04DX003 (ip), vehicle: acetone) was 107 % of control and the T/C (dose: 228.0 mg/kg/injection, schedule: Q01DX001 (ip), vehicle: Klucel (hydroxypropylcellulose) (HPC)) was 101 % of control. For the same compound, the T/C (dose: 228.0 mg/kg/injection, schedule: Q04DX003 (ip), vehicle: Klucel (hydroxypropylcellulose) (HPC)) was 98 % of control, the T/C (dose: 300.0 mg/kg/injection, schedule: Q01DX001 (ip), vehicle: carboxymethylcellulose (CMC)) was 112 % of control and the T/C (dose: 348.0 mg/kg/injection, schedule: Q01DX001 (ip), vehicle: Klucel (hydroxypropylcellulose) (HPC)) was 108 % of control. For the same compound, the T/C (dose: 348.0 mg/kg/injection, schedule: Q04DX003 (ip), vehicle: Klucel (hydroxypropylcellulose) (HPC)) was 104 % of control, the T/C (dose: 400.0 mg/kg/injection, schedule: Q01DX001 (ip), vehicle: carboxymethylcellulose (CMC)) was 111 % of control and the T/C [4] was 104 % of control. For the same compound, the T/C (dose: 400.0 mg/kg/injection, schedule: Q01DX009 (ip), vehicle: Klucel (hydroxypropylcellulose) (HPC)) was 104 % of control, the T/C (dose: 400.0 mg/kg/injection, schedule: Q04DX003 (ip), vehicle: acetone) was 103 % of control and the T/C (dose: 520.0 mg/kg/injection, schedule: Q01DX001 (ip), vehicle: Klucel (hydroxypropylcellulose) (HPC)) was 106 % of control.

With `CC1CCOC(C)(CO)O1` (stereo not drawn) the T/C (dose: 100.0 mg/kg/injection, schedule: Q04DX002 (ip), vehicle: saline with Tween-80) was 98 % of control, the T/C (dose: 200.0 mg/kg/injection, schedule: Q04DX002 (ip), vehicle: saline with Tween-80) was 95 % of control and the T/C (dose: 400.0 mg/kg/injection, schedule: Q04DX002 (ip), vehicle: saline with Tween-80) was 98 % of control.

With `COc1cc([N+](=O)[O-])c(C)cc1NCc1ccc(OC)c(OC)c1` the T/C (dose: 50.0 mg/kg/injection, schedule: Q01DX009 (ip), vehicle: saline) was 96 % of control, the T/C (dose: 100.0 mg/kg/injection, schedule: Q01DX009 (ip), vehicle: saline) was 94 % of control and the T/C (dose: 100.0 mg/kg/injection, schedule: Q04DX003 (ip), vehicle: saline) was 97 % of control. For the same compound, the T/C (dose: 200.0 mg/kg/injection, schedule: Q01DX009 (ip), vehicle: saline) was 91 % of control, the T/C (dose: 200.0 mg/kg/injection, schedule: Q04DX003 (ip), vehicle: saline) was 98 % of control and the T/C (dose: 400.0 mg/kg/injection, schedule: Q01DX009 (ip), vehicle: saline) was 94 % of control. The T/C (dose: 400.0 mg/kg/injection, schedule: Q04DX003 (ip), vehicle: saline) was 89 % of control.

With `COC(=O)N1C(N2CCCC2=O)C(C)(C)S1(=O)=O` (stereo not drawn) the T/C [5] was 102 % of control, the T/C [6] was 94 % of control and the T/C [7] was 89 % of control.

With `CCCCCCC1CCCc2ccc(CCCC)cc21` (stereo not drawn) the T/C (dose: 50.0 mg/kg/injection, schedule: Q01DX001 (ip), vehicle: saline) was 110 % of control, the T/C [1] was 106 % of control and the T/C [3] was 101 % of control. The T/C [4] was 101 % of control.

For `Oc1c(CN2CCCC2)cc(Nc2nc(/C=C/c3ccc(Cl)cc3)nc(Cl)c2-c2ccc(Cl)cc2)cc1CN1CCCC1`, the T/C (dose: 75.0 mg/kg/injection, schedule: Q01DX001 (ip), vehicle: saline) was 96 % of control, the T/C [5] was 98 % of control and the T/C (dose: 150.0 mg/kg/injection, schedule: Q01DX001 (ip), vehicle: saline) was 96 % of control. For the same compound, the T/C [6] was 91 % of control, the T/C (dose: 300.0 mg/kg/injection, schedule: Q01DX001 (ip), vehicle: saline) was 93 % of control and the T/C [7] was 91 % of control.

With `N/C(Cc1ccc([N+](=O)[O-])cc1)=N\O` the T/C (dose: 25.0 mg/kg/injection, schedule: Q01DX009 (ip), vehicle: Klucel (hydroxypropylcellulose) (HPC)) was 100 % of control, the T/C (dose: 50.0 mg/kg/injection, schedule: Q01DX009 (ip), vehicle: Klucel (hydroxypropylcellulose) (HPC)) was 91 % of control and the T/C [2] was 100 % of control.

`CC(=O)c1ccc(NC(=S)Nc2ccc(C(C)=O)cc2)cc1` was tested, and the T/C (dose: 5.0 mg/kg/injection, schedule: Q01DX009 (ip), vehicle: saline with Tween-80) was 87 % of control, the T/C (dose: 10.0 mg/kg/injection, schedule: Q01DX009 (ip), vehicle: saline with Tween-80) was 103 % of control and the T/C (dose: 20.0 mg/kg/injection, schedule: Q01DX009 (ip), vehicle: saline with Tween-80) was 98 % of control and 115 % of control. The T/C (dose: 40.0 mg/kg/injection, schedule: Q01DX009 (ip), vehicle: saline with Tween-80) was 97 % of control and 102 % of control, the T/C (dose: 80.0 mg/kg/injection, schedule: Q01DX009 (ip), vehicle: saline with Tween-80) was 86 % of control and the T/C (dose: 84.0 mg/kg/injection, schedule: Q01DX009 (ip), vehicle: saline with Tween-80) was 98 % of control. For the same compound, the T/C (dose: 320.0 mg/kg/injection, schedule: Q01DX009 (ip), vehicle: saline with Tween-80) was 102 % of control.
